Paper PMC8708580, “Structure Revision and Protein Tyrosine Phosphatase Inhibitory Activity of Drazepinone” (Marine Drugs, 2021)
Read-outs that look alike come from different tables or passages of the source.

Legend:
[1] = parameters: method as in PMID 15771896; details: at a concentration of 2.0 μg/μL; cited from earlier work
[2] = parameters: method as in PMID 15771896; details: at a concentration of 2.0 μg/μL; cited from earlier work; remark: listed apart in the source
TCPTP = target: T1, TCPTP (Homo sapiens, UniProt P17706); assay: PTP inhibitory activity assay, TCPTP; type: biochemical; details: in vitro; Na3VO4 positive control
T1 sequence (P17706 1-415): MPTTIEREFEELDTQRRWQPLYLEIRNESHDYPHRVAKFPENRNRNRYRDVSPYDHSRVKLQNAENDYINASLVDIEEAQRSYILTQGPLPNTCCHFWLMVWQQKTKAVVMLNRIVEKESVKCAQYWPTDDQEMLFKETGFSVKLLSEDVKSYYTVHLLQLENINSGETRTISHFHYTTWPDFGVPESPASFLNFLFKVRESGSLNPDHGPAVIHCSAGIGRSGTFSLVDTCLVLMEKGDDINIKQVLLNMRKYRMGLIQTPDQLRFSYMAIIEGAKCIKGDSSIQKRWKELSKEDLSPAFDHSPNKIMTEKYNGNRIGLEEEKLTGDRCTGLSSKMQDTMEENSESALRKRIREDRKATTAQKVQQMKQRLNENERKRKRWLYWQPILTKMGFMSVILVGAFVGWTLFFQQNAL
Procedure: (§1) Protein tyrosine phosphatases (PTPs), including PTP1B, T-cell PTP (TCPTP), Src homology-2 domain-containing PTP-1 (SHP1), and CD45 PTP (CD45), a family of enzymes that hydrolytically remove phosphate groups from proteins, have attracted much attention recently for drug discovery. […] Thus, the isolated compounds (+)-1 and (−)-1 were tested for their PTP inhibitory activity against PTP1B, TCPTP, SHP1, and CD45.
(§2) PTP inhibitory activity of (+)-1 and (−)-1 against PTP1B, TCPTP, SHP1, and CD45 was tested in the same way as that described in the literature. Na3VO4 was used as the positive control.

PTP1B = target: T2, PTP1B (Homo sapiens, UniProt P18031); assay: PTP inhibitory activity assay, PTP1B; type: biochemical; details: in vitro; Na3VO4 positive control
T2 sequence (P18031 1-435): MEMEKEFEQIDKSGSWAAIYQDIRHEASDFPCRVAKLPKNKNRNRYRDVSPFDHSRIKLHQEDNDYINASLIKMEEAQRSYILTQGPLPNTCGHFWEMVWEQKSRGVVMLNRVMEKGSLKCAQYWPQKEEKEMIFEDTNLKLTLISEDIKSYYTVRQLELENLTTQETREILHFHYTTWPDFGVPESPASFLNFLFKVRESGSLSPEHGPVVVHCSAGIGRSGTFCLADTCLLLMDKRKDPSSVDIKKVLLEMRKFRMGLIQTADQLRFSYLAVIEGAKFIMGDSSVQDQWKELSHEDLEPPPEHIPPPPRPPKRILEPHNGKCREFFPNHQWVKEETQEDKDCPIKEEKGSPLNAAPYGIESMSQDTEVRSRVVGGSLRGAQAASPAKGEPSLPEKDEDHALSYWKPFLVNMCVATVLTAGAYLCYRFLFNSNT
Procedure: Thus, the isolated compounds (+)-1 and (−)-1 were tested for their PTP inhibitory activity against PTP1B, TCPTP, SHP1, and CD45.
PTP inhibitory activity of (+)-1 and (−)-1 against PTP1B, TCPTP, SHP1, and CD45 was tested in the same way as that described in the literature.

CD45 = target: T3, CD45 (Homo sapiens, UniProt P08575); assay: PTP inhibitory activity assay, CD45; type: biochemical
T3 sequence (P08575 26-1306): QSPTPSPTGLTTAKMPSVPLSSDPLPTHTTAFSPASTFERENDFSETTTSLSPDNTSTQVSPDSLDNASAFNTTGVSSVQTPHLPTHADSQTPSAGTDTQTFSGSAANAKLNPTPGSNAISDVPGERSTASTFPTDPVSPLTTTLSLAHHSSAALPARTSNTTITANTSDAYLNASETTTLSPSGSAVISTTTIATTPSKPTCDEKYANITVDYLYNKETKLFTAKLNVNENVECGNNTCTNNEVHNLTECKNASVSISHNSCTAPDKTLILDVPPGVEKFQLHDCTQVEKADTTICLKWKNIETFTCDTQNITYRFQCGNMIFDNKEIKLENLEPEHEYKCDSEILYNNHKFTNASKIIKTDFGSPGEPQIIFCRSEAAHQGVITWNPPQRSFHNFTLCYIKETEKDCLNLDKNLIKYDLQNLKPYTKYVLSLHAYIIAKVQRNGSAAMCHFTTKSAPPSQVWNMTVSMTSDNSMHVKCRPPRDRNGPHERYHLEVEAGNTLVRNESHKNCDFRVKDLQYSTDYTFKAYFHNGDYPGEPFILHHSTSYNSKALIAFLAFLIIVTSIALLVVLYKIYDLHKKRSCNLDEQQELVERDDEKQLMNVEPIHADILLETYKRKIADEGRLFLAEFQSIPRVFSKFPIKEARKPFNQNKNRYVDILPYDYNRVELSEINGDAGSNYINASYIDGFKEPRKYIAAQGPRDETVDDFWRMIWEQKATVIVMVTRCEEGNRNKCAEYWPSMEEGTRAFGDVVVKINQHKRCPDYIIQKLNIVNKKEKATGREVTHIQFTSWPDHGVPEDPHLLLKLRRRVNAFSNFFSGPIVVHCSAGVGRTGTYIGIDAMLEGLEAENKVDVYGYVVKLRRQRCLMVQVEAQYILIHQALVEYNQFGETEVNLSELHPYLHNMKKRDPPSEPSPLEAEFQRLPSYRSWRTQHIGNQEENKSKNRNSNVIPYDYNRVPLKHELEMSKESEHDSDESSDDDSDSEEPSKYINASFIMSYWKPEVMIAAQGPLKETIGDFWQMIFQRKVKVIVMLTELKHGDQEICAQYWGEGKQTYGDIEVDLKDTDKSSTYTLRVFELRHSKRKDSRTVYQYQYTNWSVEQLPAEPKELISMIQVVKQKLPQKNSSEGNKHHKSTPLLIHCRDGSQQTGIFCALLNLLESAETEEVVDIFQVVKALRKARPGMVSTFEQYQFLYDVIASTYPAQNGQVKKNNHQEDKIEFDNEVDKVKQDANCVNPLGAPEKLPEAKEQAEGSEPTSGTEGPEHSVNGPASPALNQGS
Procedure: as §1, §2

[3] = in vitro, Na3VO4 positive control

IC50 (TCPTP) [µM] | IC50 TCPTP (TCPTP) | IC50 (PTP1B) [µM] | IC50 PTP1B (PTP1B) | IC50 (CD45) [µM] | IC50 CD45 (CD45; [3]) | IC50 (CD45; [3]) [µM] | SMILES | herbicidal properties [1] | zootoxic activity [2]
 |  |  |  |  |  |  | CC1=CC(C)C2c3cc4ccccc4cc3OC2(C)NC1=O (stereo not shown) [drazepinone, Drazepinone] | broad-spectrum herbicidal properties | low zootoxic activity
> 85.2 | no activity | > 85.2 | no activity | > 85.2 | no activity |  | CC1=CC2(C)Oc3c(-c4ccccc4)c[nH]c(=O)c3C2C1C (single isomer, unassigned; (+)) [(+)-1] |  | 
42.6 |  | 5.32 |  |  |  | > 85.2 | CC1=CC2(C)Oc3c(-c4ccccc4)c[nH]c(=O)c3C2C1C (single isomer, unassigned; (-)) [(−)-1] |  | 
 | 3.13 mg/L |  |  |  | 6.25 mg/L |  | [Na+].[Na+].[Na+].[O]=[V]([O-])([O-])[O-] [Na3VO4, reference compound] |  | 
